According to the supplement of paper PMC10307832:

Legend:
Experiment in all cases: relative viability (nuclei count vs DMSO), 5 days (fraction); higher = more cells survive
[1] = tested on: NCI-H1666
Procedure, shortened: (§1)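 Relative viability is defined as nuclei in treated wells over nuclei in vehicle wells. Duplicate plates were run and medians reported. Lung cancer cell lines in 1536-well plates were dosed by pin tool one day after seeding, with one drug or with a fixed anchor-drug dose plus five library-drug doses (not always all listed) in √10 steps, and nuclei were counted after 5 days.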

[2] = tested on: NCI-H2126
Procedure, shortened: as §1

[3] = tested on: HCC-44
Procedure, shortened: as §1

[4] = tested on: NCI-H1792
Procedure, shortened: as §1

[5] = tested on: NCI-H3122
Procedure, shortened: as §1

[6] = tested on: NCI-H2347
Procedure, shortened: as §1

[7] = tested on: HCC-827
Procedure, shortened: as §1

[8] = tested on: ChaGo-K-1
Procedure, shortened: as §1

[9] = tested on: NCI-H1793
Procedure, shortened: as §1

[10] = tested on: NCI-H1755
Procedure, shortened: as §1

[11] = tested on: LU99A
Procedure, shortened: as §1

[12] = tested on: RERF-LC-KJ
Procedure, shortened: as §1

[13] = tested on: LXF-289
Procedure, shortened: as §1

[14] = tested on: NCI-H1395
Procedure, shortened: as §1

[15] = tested on: ABC-1
Procedure, shortened: as §1

[16] = tested on: CAL-12T
Procedure, shortened: as §1

[17] = tested on: NCI-H358
Procedure, shortened: as §1

[18] = tested on: NCI-H1944
Procedure, shortened: as §1

[19] = tested on: LCLC-103H
Procedure, shortened: as §1

[20] = tested on: NCI-H322M
Procedure, shortened: as §1

With `Cc1csc(=NC2CCCCC2)n1/N=C/c1ccc(O)c(O)c1O` [MIM1] + NC(=O)Nc1cc(-c2cccc(F)c2)sc1C(=O)N[C@H]1CCCNC1 [AZD7762] (partner 0.2 µM) the relative viability ([1]; first compound 0.2 µM) was 0.862, the relative viability ([1]; first compound 0.6325 µM) was 0.789 and the relative viability ([1]; first compound 2 µM) was 0.829. The relative viability ([1]; first compound 6.325 µM) was 0.7, the relative viability ([1]; first compound 20 µM) was 0.519 and the relative viability ([2]; first compound 0.2 µM) was 0.934. It also gave a relative viability ([2]; first compound 0.6325 µM) of 0.985, a relative viability ([2]; first compound 2 µM) of 1.07 and a relative viability ([2]; first compound 6.325 µM) of 0.913. The relative viability ([2]; first compound 20 µM) was 0.786, the relative viability ([3]; first compound 0.2 µM) was 0.985 and the relative viability ([3]; first compound 0.6325 µM) was 0.985. It also gave a relative viability ([3]; first compound 2 µM) of 0.961, a relative viability ([3]; first compound 6.325 µM) of 0.947 and a relative viability ([3]; first compound 20 µM) of 0.521. The relative viability ([4]; first compound 0.2 µM) was 0.657, the relative viability ([4]; first compound 0.6325 µM) was 0.565 and the relative viability ([4]; first compound 2 µM) was 0.733. It also gave a relative viability ([4]; first compound 6.325 µM) of 0.559, a relative viability ([4]; first compound 20 µM) of 0.858 and a relative viability ([5]; first compound 0.2 µM) of 0.945. For the same molecule, the relative viability ([5]; first compound 0.6325 µM) was 0.978, the relative viability ([5]; first compound 2 µM) was 0.973 and the relative viability ([5]; first compound 6.325 µM) was 0.472. For the same molecule, the relative viability ([5]; first compound 20 µM) was 0.19, the relative viability ([6]; first compound 0.2 µM) was 0.689 and the relative viability ([6]; first compound 0.6325 µM) was 0.779. It also gave a relative viability ([6]; first compound 2 µM) of 0.797, a relative viability ([6]; first compound 6.325 µM) of 0.623 and a relative viability ([6]; first compound 20 µM) of 0.57. For the same molecule, the relative viability ([7]; first compound 0.2 µM) was 0.245, the relative viability ([7]; first compound 0.6325 µM) was 0.235 and the relative viability ([7]; first compound 2 µM) was 0.165. The relative viability ([7]; first compound 6.325 µM) was 0.189, the relative viability ([7]; first compound 20 µM) was 0.304 and the relative viability ([8]; first compound 0.2 µM) was 0.869. For the same molecule, the relative viability ([8]; first compound 0.6325 µM) was 0.883, the relative viability ([8]; first compound 2 µM) was 0.907 and the relative viability ([8]; first compound 6.325 µM) was 0.596. For the same molecule, the relative viability ([8]; first compound 20 µM) was 0.248, the relative viability ([9]; first compound 0.2 µM) was 0.614 and the relative viability ([9]; first compound 2 µM) was 0.412. The relative viability ([9]; first compound 6.325 µM) was 0.424, the relative viability ([9]; first compound 20 µM) was 0.271 and the relative viability ([10]; first compound 0.2 µM) was 0.464. For the same molecule, the relative viability ([10]; first compound 0.6325 µM) was 0.436, the relative viability ([10]; first compound 2 µM) was 0.433 and the relative viability ([10]; first compound 6.325 µM) was 0.38. The relative viability ([10]; first compound 20 µM) was 0.354, the relative viability ([11]; first compound 0.2 µM) was 0.364 and the relative viability ([11]; first compound 0.6325 µM) was 0.265. It also gave a relative viability ([11]; first compound 2 µM) of 0.258, a relative viability ([11]; first compound 6.325 µM) of 0.218 and a relative viability ([11]; first compound 20 µM) of 0.0782. The relative viability ([12]; first compound 0.2 µM) was 0.957, the relative viability ([12]; first compound 0.6325 µM) was 0.917 and the relative viability ([12]; first compound 2 µM) was 0.818. The relative viability ([12]; first compound 6.325 µM) was 0.687, the relative viability ([12]; first compound 20 µM) was 0.17 and the relative viability ([13]; first compound 0.2 µM) was 1.07. For the same molecule, the relative viability ([13]; first compound 0.6325 µM) was 0.905, the relative viability ([13]; first compound 2 µM) was 1.12 and the relative viability ([13]; first compound 6.325 µM) was 0.85. The relative viability ([13]; first compound 20 µM) was 0.378, the relative viability ([14]; first compound 0.2 µM) was 0.416 and the relative viability ([14]; first compound 0.6325 µM) was 0.409. It also gave a relative viability ([14]; first compound 2 µM) of 0.338, a relative viability ([14]; first compound 6.325 µM) of 0.387 and a relative viability ([14]; first compound 20 µM) of 0.337. For the same molecule, the relative viability ([15]; first compound 0.2 µM) was 0.664, the relative viability ([15]; first compound 0.6325 µM) was 0.896 and the relative viability ([15]; first compound 2 µM) was 0.814. It also gave a relative viability ([15]; first compound 6.325 µM) of 0.788, a relative viability ([15]; first compound 20 µM) of 0.341 and a relative viability ([16]; first compound 0.2 µM) of 0.527. For the same molecule, the relative viability ([16]; first compound 0.6325 µM) was 0.575, the relative viability ([16]; first compound 2 µM) was 0.605 and the relative viability ([16]; first compound 6.325 µM) was 0.436. The relative viability ([16]; first compound 20 µM) was 0.332, the relative viability ([17]; first compound 0.2 µM) was 0.496 and the relative viability ([17]; first compound 0.6325 µM) was 0.512. For the same molecule, the relative viability ([17]; first compound 2 µM) was 0.468, the relative viability ([17]; first compound 6.325 µM) was 0.342 and the relative viability ([17]; first compound 20 µM) was 0.231. The relative viability ([18]; first compound 0.2 µM) was 0.511, the relative viability ([18]; first compound 0.6325 µM) was 0.479 and the relative viability ([18]; first compound 2 µM) was 0.475. The relative viability ([18]; first compound 6.325 µM) was 0.397, the relative viability ([18]; first compound 20 µM) was 0.243 and the relative viability ([19]; first compound 0.2 µM) was 0.691. The relative viability ([19]; first compound 0.6325 µM) was 0.79, the relative viability ([19]; first compound 2 µM) was 0.759 and the relative viability ([19]; first compound 6.325 µM) was 0.698. For the same molecule, the relative viability ([19]; first compound 20 µM) was 0.399, the relative viability ([20]; first compound 0.2 µM) was 0.564 and the relative viability ([20]; first compound 0.6325 µM) was 0.652. The relative viability ([20]; first compound 2 µM) was 0.446, the relative viability ([20]; first compound 6.325 µM) was 0.455 and the relative viability ([20]; first compound 20 µM) was 0.439.
